Assay results reported in patent publication US5721366A, “Platelet aggregation inhibitors” (G. D. Searle & Co, priority 1995, dated 1998).
Counter-ions that a name gives are not always drawn.

What was measured:
[1] = tested on: Dog platelet aggregation (platelet-rich plasma); assay: In-Vitro Platelet Aggregation in PRP (Dog), collagen-induced; assay type: cell-based; settings: for IC50: collagen-induced aggregation (33 μg/ml final), 37° C.; for inhibition at 1 µM: collagen-induced aggregation
Description: In-Vitro Platelet Aggregation in PRP--(Dog)
Healthy male or female dogs were fasted for 8 hours prior to drawing blood; then 60 ml whole blood was collected using a butterfly needle and 30 cc plastic syringe with 6 ml of 0.129M buffered sodium citrate (3.8%) (drawn from a minimum of 3 dogs and blood was pooled). The syringe was rotated carefully as blood was drawn to mix the citrate. Platelet-rich plasma (PRP) was prepared by centrifugation at 975×g for 3.17 minutes at room temperature, allowing the centrifuge to coast to a stop without braking. The PRP was removed from the blood with a plastic pipette and placed in a plastic capped 50 ml Corning conical sterile centrifuge tube which was held at room temperature. Platelet poor plasma (PPP) was prepared by centrifuging the remaining blood at 2000×g for 15 minutes at room temperature allowing the centrifuge to coast to a stop without braking. The platelet count in the PRP was routinely 2-4×10^8 platelets per ml. 400 μl of the PRP preparation and 50 μl of the compound to be tested or saline were preincubated for 2 minutes at 37° C. in a BioData aggregometer (BioData, Horsham, Pa.). 50 μl of collagen (diluted 1:3 with 5% dextrose and water solution, 33 μg/ml final concentration, equine tendon, Chronolog, Havertown, Pa.) was added to the cuvettes and the aggregation was monitored for 3 minutes. All compounds are tested in duplicate.
Results are calculated as follows:
Percent of control=[(maximal OD minus initial OD of compound) divided by (maximal OD minus initial OD of control saline)]×100. The % inhibition=100-(percent of control).
(§1) (NT in the following table indicates not tested.)

[2] = tested on: Human platelet aggregation (platelet-rich plasma); assay: Inhibition of Human Platelet Aggregation (PRP), collagen-induced; assay type: cell-based; settings: collagen-induced aggregation (4 μg/ml final), 37° C.
Description: Inhibition of Human Platelet Aggregation (PRP)
Platelet rich plasma was prepared from citrated whole blood (3.8% Na citrate, 1:10 in 30 ml blood) withdrawn from the antecubital vein (n=1). PRP was prepared by centrifugation (Sorvall RC3C, DuPont, Wilmington, Del.) of the whole blood at 1000×g for 3 min, allowing the centrifuge to stop without braking. Platelet poor plasma (PPP) was prepared by centrifugation of PRP at 2000×g for 10 min. […] Aggregation was measured in a 4 channel aggregometer (model PAP-4C, Bio/Data Corp., Hatboro, Pa.). Aliquots of PPP were used to standardize the aggregometer for measurement of maximum light transmission. Platelet aggregation was measured as an increase in light transmission.
PRP (430 μl aliquot) was preincubated with 50 μl of various concentrations of compound (dissolved in 10% ETOH/water at a concentration of 10^-3 M. Compounds were diluted to desired concentration with 0.9% NaCl) for 2 min at 37° C., with stirring at 900 rpm, in the aggregometer. The stock collagen (Chronolog, Havertown, Pa., equine tendon) was diluted 1:10 with a 5% dextrose and water solution. The vehicle control response was obtained by adding 20 μl diluted collagen to the untreated aliquot of PRP+50 μl saline. Final collagen concentration was 4 μg/ml. Aggregation was recorded for 3 min following the addition of collagen. […] Percent inhibition was calculated by comparing treated and control samples. IC50 's were calculated graphically from dose-response curves. Average values and standard errors were calculated using the IC50 's of the individual experiments. Statistical analyses were done by an unequal variance, unpaired Student's t-test [Minitab Reference Manual, Minitab Inc., State College, Pa. (1988)]. Statistical significance was assumed when p<0.05 was found.
as §1

[3] = Canis lupus familiaris, Platelet

3[S]-[[[[1-[4-(aminoiminomethyl)phenyl]-2-oxo-3-pyrrolidinyl]amino]carbonyl]amino]benzenepropanoic acid trifluoroacetate. Enantiomerically Enriched Isomer B [Example 47]
IC50 [1]: 62 nM

N=C(N)c1ccc(N2CCCC(CC(=O)NC(CC(=O)O)c3ccco3)C2=O)cc1 (mixture of isomers) [Example 34G, 3-[[[1-[4-(aminoiminomethyl)phenyl]2-oxo-3-piperidinyl]acetyl]amino]-3-(2-furanyl]propanoic acid, diastereomers]
IC50 [1, 3]: 190 nM

N=C(N)c1ccc(N2CCC(CC(=O)NC(CC(=O)O)c3ccoc3)C2=O)cc1 (single isomer, unassigned) [Example 51]
IC50 [1, 3]: 50 nM

C=C[C@H](CC(=O)O)NC(=O)CC1CCN(c2ccc(C(=N)N)cc2)C1=O (single isomer, unassigned; isomer a) [Example 4, 3S-[[[1-[4-(aminoiminomethyl)phenyl]-2-oxo-3-pyrrolidinyl]acetyl]amino]-4-pentenoic acid, monohydrochloride, enantiomerically enriched isomer A.]
IC50 [1]: 52 nM | IC50 [2]: 55 nM

C=C[C@H](CC(=O)O)NC(=O)CC1CCCN(c2ccc(C(=N)N)cc2)C1=O (single isomer, unassigned; isomer a) [Example 34J]
inhibition at 1 µM ([1]; Canis lupus familiaris): 13%

N=C(N)c1ccc(N2CCC(NC(=O)NCCC(=O)O)C2=O)cc1 (single isomer, unassigned; isomer a) [Example 41, 3-[[[[1-[4-(aminoiminomethyl)phenyl]-2-oxo-3-pyrrolidinyl]amino]carbonyl]amino]propanoic acid trifluoroacetate. Enantiomerically Enriched Isomer A.]
inhibition at 1 µM ([1]; Canis lupus familiaris): 30% | IC50 ([2]; Homo sapiens, Platelet): 150 nM

C=C[C@H](CC(=O)O)NC(=O)CC1CCN(c2ccc(C(=N)N)cc2)C1=O (single isomer, unassigned; isomer b) [Example 6, 3S-[[[1-[4-(aminoiminomethyl)phenyl]-2-oxo-3-pyrrolidinyl]acetyl]amino]-4-pentenoic acid, enantiomerically enriched isomer B]
IC50 [1]: 1600 nM | IC50 [2]: 850 nM

N=C(N)c1ccc(N2CCCC(CC(=O)NCCC(=O)O)C2=O)cc1 (single isomer, unassigned; isomer b) [Example 34B, 3-[[[1-[4-(aminoiminomethyl)phenyl]-2-oxo-3-piperidinyl]acetyl]amino]propanoic acid, enantiomerically enriched isomer B]
IC50 [1, 3]: 240 nM

N=C(N)c1ccc(N2CCCC(CC(=O)NC(CC(=O)O)c3ccsc3)C2=O)cc1 (single isomer, unassigned; isomer b) [Example 34C, 3-[[[1-[4-(aminoiminomethyl)phenyl]-2-oxo-3-piperidinyl]acetyl]amino]-3-(3-thienyl)propanoic acid, enantiomerically enriched isomer B]
IC50 [1, 3]: 160 nM

N=C(N)c1ccc(N2CCCC(CC(=O)NC(CC(=O)O)c3ccoc3)C2=O)cc1 (single isomer, unassigned; isomer b) [Example 34E]
IC50 [1, 3]: 70 nM

C=C[C@H](CC(=O)O)NC(=O)CC1CCCN(c2ccc(C(=N)N)cc2)C1=O (single isomer, unassigned; isomer b) [Example 34L]
IC50 [1, 3]: 59 nM

C#C[C@H](CC(=O)O)NC(=O)CC1CCCN(c2ccc(C(=N)N)cc2)C1=O (single isomer, unassigned; isomer b) [Example 34N]
IC50 [1, 3]: 59 nM

N=C(N)c1ccc(N2CCC(CC(=O)NCCC(=O)O)C2=O)cc1 (single isomer, unassigned; isomer b) [Example 36, 3-[[[1-[4-(aminoiminomethyl)phenyl]-2-oxo-3-pyrrolidinyl]acetyl]amino]propionic acid, trifluoroacetate, enantiomerically enriched isomer B.]
IC50 [1, 3]: 91 nM | IC50 ([2]; Homo sapiens, Platelet): 110 nM

N=C(N)c1ccc(N2CCC(NC(=O)NCCC(=O)O)C2=O)cc1 (single isomer, unassigned; isomer b) [Example 43, 3-[[[[1-[4-(aminoiminomethyl)phenyl]-2-oxo-3-pyrrolidinyl]amino]carbonyl]amino]propanoic acid trifluoroacetate. Enantiomerically Enriched Isomer B.]
IC50 [1, 3]: 90 nM

C[C@H](CC(=O)O)NC(=O)NC1CCN(c2ccc(C(=N)N)cc2)C1=O (single isomer, unassigned; isomer b) [Example 45]
IC50 [1, 3]: 39 nM

N=C(N)c1ccc(N2CCC(NC(=O)NC[C@H](NC(=O)OCc3ccccc3)C(=O)O)C2=O)cc1 (single isomer, unassigned; isomer b) [Example 49]
IC50 [1, 3]: 54 nM

C=C[C@H](CC(=O)O)NC(=O)CC1CCN(c2ccc(C(=N)N)cc2)C1=O (stereo partly drawn) [Example 2, 3(S)-[[[1-[4-(aminoiminomethyl)phenyl]-2-oxo-3-pyrrolidinyl]acetyl]amino]-4-pentenoic acid, monohydrochloride]
IC50 [1, 3]: 72 nM

N=C(N)c1ccc(N2CCC(CC(=O)NCCC(=O)O)C2=O)cc1 (stereo not shown) [Example 8, 3-[[[1-[4-(aminoiminomethyl)phenyl]-2-oxo-3-pyrrolidinyl]acetyl]amino]propionic acid]
IC50 [1, 3]: 180 nM | IC50 ([2]; Homo sapiens, Platelet): 180 nM

CC(CC(=O)O)NC(=O)CC1CCN(c2ccc(C(=N)N)cc2)C1=O (stereo not shown) [Example 10, 3-[[[-[4-(aminoiminomethyl)phenyl]-2-oxo-3-pyrrolidinyl]acetyl]amino]butanoic acid]
IC50 [1, 3]: 170 nM | IC50 ([2]; Homo sapiens, Platelet): 260 nM

N=C(N)c1ccc(N2CCC(CC(=O)NC(CC(=O)O)c3ccccc3)C2=O)cc1 (stereo not shown) [Example 12, 3-[[[1-[4-(aminoiminomethyl)phenyl]-2-oxo-3-pyrrolidinyl]acetyl]amino]-3-phenylpropionic acid]
IC50 [1, 3]: 390 nM | IC50 ([2]; Homo sapiens, Platelet): 290 nM

C#C[C@H](CC(=O)O)NC(=O)CC1CCN(c2ccc(C(=N)N)cc2)C1=O (stereo partly drawn) [Example 14, 3(S) -[[[1-[4-(aminoiminomethyl)phenyl]-2-oxo-3-pyrrolidinyl]acetyl]amino]-4-pentynoic acid]
IC50 [1, 3]: 120 nM

C[Si](C)(C)C#C[C@H](CC(=O)O)NC(=O)CC1CCCN(c2ccc(C(=N)N)cc2)C1=O (stereo partly drawn) [Example 22, 3S-[[[1-[4-(aminoiminomethyl)phenyl]-2-oxo-3-piperidinyl]acetyl]amino]-5-(trimethylsilyl)-4-pentynoic acid]
IC50 [1, 3]: 180 nM

C#CC(CC(=O)O)NC(=O)CC1CCCN(c2ccc(C(=N)N)cc2)C1=O (stereo not shown) [Example 24, 3-[[[1-[4-(aminoiminomethyl)phenyl]-2-oxo-3-piperidinyl]acetyl]amino]-4-pentynoic acid.]
IC50 [1, 3]: 190 nM

CC(C)(C)C#CC(CC(=O)O)NC(=O)CC1CCCN(c2ccc(C(=N)N)cc2)C1=O (stereo not shown) [Example 26, 3-[[[1-[4-(aminoiminomethyl)phenyl]-2-oxo-3-piperidinyl]acetyl]amino]-6,6-dimethyl-4-heptynoic acid]
IC50 [1, 3]: 590 nM

C=C[C@H](CC(=O)O)NC(=O)CC1CCCN(c2ccc(C(=N)N)cc2)C1=O (stereo partly drawn) [Example 34, 3(S)-[[[1-[4-(aminoiminomethyl)phenyl]-2-oxo-3-piperidinyl]acetyl]amino]-4-pentenoic acid.]
IC50 [1, 3]: 120 nM

COc1ccc(C(CC(=O)O)NC(=O)CC2CCCN(c3ccc(C(=N)N)cc3)C2=O)cc1 (stereo not shown) [Example 34I, 3-[[[1-[4-(aminoiminomethyl)phenyl]-2-oxo-3-piperidinyl]acetyl]amino]-3-(4-methoxyphenyl)propanoic acid]
IC50 [1, 3]: 180 nM

N=C(N)c1ccc(N2CCC(NC(=O)NCCC(=O)O)C2=O)cc1 (stereo not shown) [Example 38, 3-[[[[1-[4-(aminoiminomethyl)phenyl]-2-oxo-3-pyrrolidinyl]amino]carbonyl]amino]propionic acid, trifluoroacetate.]
IC50 [1, 3]: 125 nM
